In patent US20250304582A1, “Bicyclic Ureas As Kinase Inhibitors” (Incyte Corporation, priority 2024, published 2025):

How the values were obtained:
[1] = biological target: T1, pseudo-kinase domain (JH2, amino-acids 536-812) of human Wild Type JAK2 (Homo sapiens, UniProt O60674, F794H/W659A/W777A); experiment: JAK2 LanthaScreen JH2-WT Binding Assay; settings: 50 nM Fluorescent JAK2-JH2 Tracer, 1 hour at 25° C.; read-out: JH2 BIND WT (EX. B)
T1 construct: JH2, amino-acids 536-812 with 3 surface mutations W659A, W777A, F794H; His (C); purchased BPS Bioscience 79463; host or cells: baculovirus expression system
T1 sequence (O60674 536-812 W659A/W777A/F794H): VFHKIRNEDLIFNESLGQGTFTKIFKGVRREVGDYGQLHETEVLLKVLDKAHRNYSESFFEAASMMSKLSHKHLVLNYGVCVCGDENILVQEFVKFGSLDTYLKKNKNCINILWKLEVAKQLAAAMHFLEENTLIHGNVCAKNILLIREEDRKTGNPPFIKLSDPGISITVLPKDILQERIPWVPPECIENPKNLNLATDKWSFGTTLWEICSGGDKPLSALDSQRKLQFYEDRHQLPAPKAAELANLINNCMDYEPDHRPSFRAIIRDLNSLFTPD
Experimental: Example B. JAK2 LanthaScreen JH2-WT Binding Assay
(§1) JAK2 JH2-WT binding assay utilizes pseudo-kinase domain (JH2, amino-acids 536-812 with 3 surface mutations W659A, W777A, F794H) of human Wild Type JAK2 expressed as C-terminal His-Avi-tagged, biotinylated protein in a baculovirus expression system (BPS Bioscience, Catalog #79463). The assay was conducted in black 384-well polystyrene plates in a final reaction volume of 20 μL. JAK2 JH2-WT (0.145 nM) was incubated with compounds (100 nL serially diluted in DMSO) in the presence of 50 nM Fluorescent JAK2-JH2 Tracer (MedChem Express Catalog #HY-102055) and 0.25 nM Streptavidin-Tb cryptate (Cisbio Part #610SATLB) in assay buffer (50 mM Tris, pH=7.5, 10 mM MgCl2, 0.01% Brij-35, 0.1% BSA, 1 mM EGTA, 5% Glycerol and 5 mM DTT). Non-specific binding was accessed in the presence of 2 mM ATP. After incubation for 1 hour at 25° C., LanthaScreen signals were read on a PHERAstar FS plate reader (BMG LABTECH). Data was analyzed with IDBS Xlfit and GraphPad Prism 5.0 software using a four parameter dose response curve to determine IC50 for each compound.

[2] = biological target: T2, catalytic domain (JH1, amino acids 808-1132) of human JAK2 (Homo sapiens, UniProt O60674); experiment: JAK2 HTRF Enzyme Activity Assay; format: biochemical; settings: ATP (30 μM or 1 mM; not stated which for the table), 60 minutes at 25° C.; read-out: JAK2 HTRF (Ex. D)
T2 construct: catalytic domain (JH1, amino acids 808-1132) of human JAK2; His (N); purchased BPS Bioscience 40450; host or cells: baculovirus expression system
T2 sequence (O60674 808-1132): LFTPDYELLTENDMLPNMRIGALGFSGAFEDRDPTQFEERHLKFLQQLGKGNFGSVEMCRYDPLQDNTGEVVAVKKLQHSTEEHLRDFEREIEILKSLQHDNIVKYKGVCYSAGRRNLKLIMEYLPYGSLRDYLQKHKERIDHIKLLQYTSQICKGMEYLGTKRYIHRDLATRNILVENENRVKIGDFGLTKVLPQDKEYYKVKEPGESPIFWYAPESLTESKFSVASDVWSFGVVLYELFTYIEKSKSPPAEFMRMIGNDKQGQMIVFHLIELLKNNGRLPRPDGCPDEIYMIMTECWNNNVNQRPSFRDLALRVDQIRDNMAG
Experimental: Example D. JAK2 HTRF Enzyme Activity Assay
JAK2 enzyme activity assays utilize catalytic domain (JH1, amino acids 808-1132) of human JAK2 expressed as N-terminal His-tagged protein in a baculovirus expression system (BPS Bioscience, Catalog #40450). The assays was conducted in black 384-well polystyrene plates in a final reaction volume of 20 μL. JAK2 (0.015 nM) was incubated with compounds (100 nL serially diluted in DMSO) in the presence of ATP (30 μM or 1 mM) and 500 nM Biotin-labeled EQEDEPEGDYFEWLE (SEQ ID NO.: 1) peptide (BioSource International, custom synthesis) in assay buffer (50 mM Tris, pH=7.5, 10 mM MgCl2, 0.01% Brij-35, 0.1% BSA, 1 mM EGTA, 5% Glycerol and 5 mM DTT) for 60 minutes at 25° C. The reactions were stopped by the addition of 10 μL of detection buffer (50 mM Tris, pH 7.8, 0.5 mg/mL BSA, 150 mM NaCl), supplemented with EDTA, LANCE Eu-W1024 anti-phosphotyrosine (PY20), (PerkinElmer, Catalog #AD0067) and Streptavidin SureLight APC (PerkinElmer Catalog #CR130-100), for a final concentration of 15 mM, 1.5 nM and 75 nM, respectively. HTRF signals were read after 30 minutes incubation at room temperature on a PHERAstar FS plate reader (BMG LABTECH). Data was analyzed with TDBS Xlfit and GraphPad Prism 5.0 software using a four parameter dose response curve to determine IC50 for each compound.

[3] = biological target: T3, catalytic domain (JH1, amino acids 826-1132) of human JAK2 (Homo sapiens, UniProt O60674); experiment: JAK2 LanthaScreen JH1 Binding Assay; settings: 50 nM fluorescent JAK2-JH1 tracer, 2 hours at 25° C.; read-out: JH1 BIND (EX. A)
T3 construct: catalytic domain (JH1, amino acids 826-1132) of human JAK2; FLAG (N); purchased Carna Biosciences 08-445-20N; host or cells: baculovirus expression system
T3 sequence (O60674 826-1132): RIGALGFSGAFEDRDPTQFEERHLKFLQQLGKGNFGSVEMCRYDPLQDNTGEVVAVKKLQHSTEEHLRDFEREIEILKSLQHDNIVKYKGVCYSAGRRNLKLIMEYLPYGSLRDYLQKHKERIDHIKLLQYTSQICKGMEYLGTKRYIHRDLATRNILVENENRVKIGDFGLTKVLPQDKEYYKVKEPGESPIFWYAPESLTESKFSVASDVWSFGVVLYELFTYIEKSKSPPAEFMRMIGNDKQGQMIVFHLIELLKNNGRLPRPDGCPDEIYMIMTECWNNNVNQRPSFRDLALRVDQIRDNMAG
Experimental: Example A. JAK2 LanthaScreen JH1 Binding Assay
JAK2 JH1 binding assay utilizes catalytic domain (JH1, amino acids 826-1132) of human JAK2 expressed as N-terminal FLAG-tagged, biotinylated protein in a baculovirus expression system (Carna Biosciences, Product #08-445-20N). The assay was conducted in black 384-well polystyrene plates in a final reaction volume of 20 μL. JAK2 JH1 (1.5 nM) was incubated with compounds (100 nL serially diluted in DMSO) in the presence of 50 nM fluorescent JAK2-JH1 tracer and 0.5 nM Streptavidin-Tb cryptate (Cisbio Part #610SATLB) in assay buffer (50 mM Tris, pH=7.5, 10 mM MgCl2, 0.01% Brij-35, 0.1% BSA, 1 mM EGTA, 5% Glycerol and 5 mM DTT). Non-specific binding was accessed in the presence of 2 mM ATP. After incubation for 2 hours at 25° C., LanthaScreen signals were read on a PHERAstar FS plate reader (BMG LABTECH). Data was analyzed with IDBS Xlfit and GraphPad Prism 5.0 software using a four parameter dose response curve to determine IC50 for each compound.

[4] = biological target: T4, pseudo-kinase domain (JH2, amino-acids 536-812) of human V617F mutant JAK2 (Homo sapiens, UniProt O60674, F794H/V617F/W659A/W777A); experiment: JAK2 LanthaScreen JH2-V617F Binding Assay; settings: 50 nM Fluorescent JAK2-JH2 Tracer, 1 hour at 25° C.; read-out: JH2 BIND V617F (Ex. C)
T4 construct: JH2, amino-acids 536-812 with 3 surface mutations W659A, W777A, F794H; His (C); purchased BPS Bioscience 79498; host or cells: baculovirus expression system
T4 sequence (O60674 536-812 V617F/W659A/W777A/F794H): as the sequence (O60674 536-812 W659A/W777A/F794H) above, with V82F counted along it
Experimental: Example C. JAK2 LanthaScreen JH2-V617F Binding Assay
as §1, with “JH2-V617F” for “JH2-WT”, “V617F mutant” for “Wild Type”, “#79498).” for “#79463).”, “JH2-V617F (0.26” for “JH2-WT (0.145”

SMILES | IC50 [1] [nM] | IC50 [2] [nM] | IC50 [3] [nM] | IC50 [4] [nM]
COC(=O)N[C@@H]1CC[C@@H](n2c(=O)n(C)c3cnc(Nc4ccc5cccc(C)c5n4)cc32)C1 [Example 39, Methyl ((1R,3R)-3-(3-methyl-6-((8-methylquinolin-2-yl)amino)-2-oxo-2,3-dihydro-1H-imidazo[4,5-c]pyridin-1-yl)cyclopentyl)carbamate] | ≤ 10 | > 1000 | > 1000 | 10 to 100
[2H]C([2H])([2H])n1c(=O)n([C@@H]2CC[C@@H](NC(=O)OC)C2)c2cc(Nc3cc(CO)c4cccc(C(F)(F)F)c4n3)ncc21 [Example 1, Methyl ((1R,3R)-3-(6-((4-(hydroxymethyl)-8-(trifluoromethyl)quinolin-2-yl)amino)-3-(methyl-d3)-2-oxo-2,3-dihydro-1H-imidazo[4,5-c]pyridin-1-yl)cyclopentyl)carbamate] | ≤ 10 | > 1000 | > 1000 | ≤ 10
COC(=O)N[C@@H]1CC[C@@H](n2c(=O)n(C)c3cnc(Nc4ccc5cccc(Br)c5n4)cc32)C1 [Example 24, Methyl ((1R,3R)-3-(6-((8-bromoquinolin-2-yl)amino)-3-methyl-2-oxo-2,3-dihydro-1H-imidazo[4,5-c]pyridin-1-yl)cyclopentyl)carbamate] | ≤ 10 | > 1000 | > 1000 | ≤ 10
[2H]C([2H])([2H])n1c(=O)n([C@@H]2CC[C@@H](NC(=O)OC)C2)c2cc(Nc3ccc4nccc(C#N)c4n3)ncc21 [Example 36, Methyl ((1R,3R)-3-(6-((8-cyano-1,5-naphthyridin-2-yl)amino)-3-(methyl-d3)-2-oxo-2,3-dihydro-1H-imidazo[4,5-c]pyridin-1-yl)cyclopentyl)carbamate] | ≤ 10 | > 1000 | > 1000 | ≤ 10
COC(=O)N[C@@H]1CC[C@@H](n2c(=O)n(C)c3cnc(Nc4ccc5ccc(C#N)cc5n4)cc32)C1 [Example 44, Methyl ((1R,3R)-3-(6-((7-cyanoquinolin-2-yl)amino)-3-methyl-2-oxo-2,3-dihydro-1H-imidazo[4,5-c]pyridin-1-yl)cyclopentyl)carbamate] | 100 to 500 | > 1000 | > 1000 | 100 to 500
COC(=O)N[C@@H]1CC[C@@H](n2c(=O)n(C)c3cnc(Nc4ccc5cc(Cl)cc(C(F)(F)F)c5n4)cc32)C1 [Example 25, Methyl ((1R,3R)-3-(6-((6-chloro-8-(trifluoromethyl)quinolin-2-yl)amino)-3-methyl-2-oxo-2,3-dihydro-1H-imidazo[4,5-c]pyridin-1-yl)cyclopentyl)carbamate] | ≤ 10 | > 1000 | > 1000 | ≤ 10
[2H]C([2H])([2H])n1c(=O)n([C@@H]2CC[C@@H](NC(=O)OC)C2)c2cc(Nc3cc(S(C)(=N)=O)c4cccc(C(F)(F)F)c4n3)ncc21 (stereo partly drawn) [Example 7, methyl ((1R,3R)-3-(3-(methyl-d3)-6-((4-(S-methylsulfonimidoyl)-8-(trifluoromethyl)quinolin-2-yl)amino)-2-oxo-2,3-dihydro-1H-imidazo[4,5-c]pyridin-1-yl)cyclopentyl)carbamate] | ≤ 10 | > 1000 | > 1000 | 10 to 100
COC(=O)N[C@@H]1CC[C@@H](n2c(=O)n(C)c3cnc(Nc4ccc5cccc(C#N)c5n4)cc32)C1 [Example 43, Methyl ((1R,3R)-3-(6-((8-cyanoquinolin-2-yl)amino)-3-methyl-2-oxo-2,3-dihydro-1H-imidazo[4,5-c]pyridin-1-yl)cyclopentyl)carbamate] | ≤ 10 | > 1000 | > 1000 | ≤ 10
